The assay deals with slow reacting substance of anaphylaxis (SRS-A). Description: Inhibition of SRS-A induced contraction of guinea pig ileum. In kind it is cell-based. As to conditions: Cavia porcellus, 0.25 h, partially purified SRS-A from guinea pig lung at 40 μg/ml, isolated guinea pig ileum, read-out: antagonism of SRS-A. The procedure: The SRS-A antagonist activity of the compounds of this invention is measured by the ability of the active medicament to inhibit SRS-A induced contraction of guinea pig ileum. In this test system, sections of ileum are resected from guinea pigs and placed in 5 ml. tissue baths containing a modified Tyrode's solution. One end of the tissue is fixed to a glass tissue holder, the other is connected to a force-displacement transducer and the tissue is placed under a tension of 500 mg. Isometric tissue contractions are recorded on a six channel polygraph. Baths are constantly aerated with 95% O2 -5% CO2. After a 20 minute stabilization period a concentration of the appropriate agonist which provides a contraction height of 60-80% of the maximum obtainable to that agonist (as determined from full sequential concentration--response curves in separate experiments) is added to the tissue bath and the response recorded. The procedure is repeated until reproducible responses are obtained. […] Percent inhibition produced by the test compound is calculated by substracting the mean percentage change in control tissue from the mean percentage change in tissues exposed to the test compound. Additional compounds are then evaluated as long as the tissue remains reproducibly responsive to the agonist. […]

Regarding `O=S(=O)(Nc1ccc(Br)cc1)NS(=O)(=O)Nc1ccc(Br)cc1` [1,5-di-(4-bromophenyl)-imidodisulfamide], for the setting “test compound 5×10^-5 M”, the inhibition at 50 µM is 47%.
Consider `O=S(=O)(NCCCCc1ccccc1)NS(=O)(=O)NCCCCc1ccccc1` [1,5-di-(4-phenylbutyl)-imidodisulfamide], for which the inhibition at 10 µM (test compound 1×10^-5 M) was 40%.

The values above are taken from patent US4292305A, “Antiallergic imidodisulfamides” (SmithKline Corporation, priority 1980, dated 1981).
